According to patent publication US7605166B2, “Methods and compositions for treating rheumatoid arthritis” (Elan Pharmaceuticals Inc., priority 2003, dated 2009):

Key:
AIA Rats = test: Adjuvant-induced arthritis (AIA) in Lewis rats: paw swelling, erythema, histology; format: in vivo, rat
rat CIA model = test: Rat CIA model: paw swelling, erythema, histology; format: in vivo; settings: rat CIA, 30, 10, 3 mg/kg b.i.d.; FIG. 6
Protocol: Anti alpha-4 antibodies, and the compounds of Formulae W and Y were tested in the rat CIA model according to the methods shown in Table 14 below.
(§1) The results in FIG. 6 show the results for compounds. There were 8 rats per group in the efficacy study. Paw swelling and erythema were measured daily and the tarsal paws collected for histological analysis at the end of the study. Plasma which was heparinized was collected at 12 hours (i.e., the trough level) and at 4 horus after the last dose for compound measurement (FIG. 6).

[1] = Blood levels of compound in CIA rats (12 hours trough); format: in vivo, rat; settings: at 12 hours, all concentrations tested
Protocol: as §1

[2] = Plasma compound levels in AIA rats (4 and 12 hours); format: in vivo, rat; settings: 12 hours after dosing, all concentrations tested (30, 10, 3 mg/kg)
[3] = test system: murine collagen-induced arthritis (CIA) model; test: Murine collagen-induced arthritis (CIA) model: clinical scores; format: in vivo, mouse; settings: therapeutic CIA model, DBA/1LacJ mice, 100 mg/kg b.i.d.
Protocol: A murine collagen-induced arthritis (CIA) model was used to examine the pharmacological effect of anti-alpha4-integrin antibodies prophylactically, semi-therapeutically and therapeutically. Dosing of the antibody was begun on day 20 for the prophylactic animals. […] The results seen with the treatment of the CIA mice is seen in FIG. 1.
Peripheral blood leucocytes (PBLs) from mice treated with anti-alpha4, anti-α4β7 and anti-VCAM 1 antibodies were collected at 4, 12 and 24 hours after antibody dosing. Cells were stained with goat anti-rat antibodies to confirm antibodies in circulation.
The effect of the compound of Formula P was evaluated in a therapeutica CIA model. […] 100 DBA/1LacJ male mice, ages 6-8 weeks were obtained from Jackson Laboratories. The mice were immunized at Day 0 as follows: 100 μg bovine type II collagen (Chondrex) in Complete Freund's adjuvant (CFA, Sigma) were injected into the mice. At Day 21, another 100 μg bovine type II collagen (Chondrex) in Incomplete Freund's Adjuvant (IFA, Sigma) was injected into the mice. Treatment with the compound began when the animals had the disease (i.e., 100% therapeutic).
The mice are scored daily after the boost. […] Treatment continued for 3 weeks of dosing. Dosing was every other day for the antibody group and control group. […]

Structure (SMILES)	clinical and histological scores (AIA Rats; AIA model, 30 mg/kg b.i.d.)	disease severity (AIA Rats; Example F, 3 mg/kg s.c. b.i.d.)	disease severity (rat CIA model)	disease (AIA Rats; Example F, all concentrations tested (30, 10, 3 mg/kg p.o. b.i.d.), FIG. 5)	blood levels of the compound relative to receptor saturation [1]	levels of the compound relative to receptor saturation [2]	disease progression [3]
CC(C)OC(=O)[C@H](Cc1ccc(OC(=O)N2CCN(C)CC2)cc1)NC(=O)[C@H]1N(S(=O)(=O)c2cccnc2)CSC1(C)C [Formula N, N-[N-(3-pyridinesulfonyl)-L-3,3-dimethyl-4-thiaprolyl]-O-[1-methylpiperazin-4-ylcarbonyl]-L-tyrosine isopropyl ester]	ameliorate clinical and histological scores	no effect on disease severity	neither the compound of Formula N nor Y had any impact on disease severity				
CCN(CC)c1ncc(N(CC)S(=O)(=O)c2ccc(Cl)cc2)c(NC(Cc2ccc(OC(=O)N3CCCC3)cc2)C(=O)O)n1 (stereo not shown) [Formula P]				ameliorate disease	above receptor saturation	above receptor saturation	no effect on disease progression
